Results on 5 compounds are retold here after ChEMBL document CHEMBL1201862, “PubChem BioAssay data set” (2004).

Broadly, the IC50 is the concentration that gives 50% inhibition. One may read the EC50 as the concentration at which the effect is half-maximal.

Activity calls are given as the source filed them. Bounds are passed on as bounds.

Format in all cases: functional
Assay [1] concerns the target T1, Tyrosine-protein phosphatase non-receptor type 7 (Homo sapiens, UniProt P35236).
T1 sequence (P35236 whole entry): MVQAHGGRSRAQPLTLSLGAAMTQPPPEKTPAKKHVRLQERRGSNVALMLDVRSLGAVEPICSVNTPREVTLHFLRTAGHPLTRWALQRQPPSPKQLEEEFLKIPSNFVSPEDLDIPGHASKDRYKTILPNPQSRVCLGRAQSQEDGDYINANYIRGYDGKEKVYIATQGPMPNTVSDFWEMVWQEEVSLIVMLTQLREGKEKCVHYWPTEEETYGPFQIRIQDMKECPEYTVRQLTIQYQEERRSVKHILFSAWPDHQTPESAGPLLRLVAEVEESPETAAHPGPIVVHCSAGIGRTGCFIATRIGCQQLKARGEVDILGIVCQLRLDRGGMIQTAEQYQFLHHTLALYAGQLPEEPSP

Assay [2] concerns the target T2, Tyrosine-protein phosphatase non-receptor type 22 (Homo sapiens, UniProt Q9Y2R2).
T2 sequence (Q9Y2R2 whole entry): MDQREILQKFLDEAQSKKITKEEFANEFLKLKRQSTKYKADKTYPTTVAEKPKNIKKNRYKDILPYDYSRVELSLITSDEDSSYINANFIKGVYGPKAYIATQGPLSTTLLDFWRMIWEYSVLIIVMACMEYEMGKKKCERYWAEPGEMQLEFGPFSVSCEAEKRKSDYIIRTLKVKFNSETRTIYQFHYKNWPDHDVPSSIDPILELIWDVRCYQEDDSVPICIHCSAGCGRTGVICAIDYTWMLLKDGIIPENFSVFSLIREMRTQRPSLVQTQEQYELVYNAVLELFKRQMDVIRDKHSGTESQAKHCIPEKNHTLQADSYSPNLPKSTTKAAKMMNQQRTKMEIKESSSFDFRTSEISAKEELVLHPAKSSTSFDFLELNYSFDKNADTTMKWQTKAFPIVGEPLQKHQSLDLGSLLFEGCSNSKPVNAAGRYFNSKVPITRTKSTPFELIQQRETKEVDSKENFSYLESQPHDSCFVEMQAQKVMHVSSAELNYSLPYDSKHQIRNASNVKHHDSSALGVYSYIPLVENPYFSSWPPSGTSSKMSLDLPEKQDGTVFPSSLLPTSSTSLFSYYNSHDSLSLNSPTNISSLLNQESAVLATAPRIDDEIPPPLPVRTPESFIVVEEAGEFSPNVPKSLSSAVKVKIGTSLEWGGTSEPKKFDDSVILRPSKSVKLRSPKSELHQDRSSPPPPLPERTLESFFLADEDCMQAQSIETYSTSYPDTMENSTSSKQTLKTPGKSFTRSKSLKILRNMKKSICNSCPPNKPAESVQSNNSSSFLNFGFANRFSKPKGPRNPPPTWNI

Assay [3] deals with T2, Tyrosine-protein phosphatase non-receptor type 22. The source holds these as a separate data set.
In assay [4] the target is T3, Delta-type opioid receptor (Homo sapiens, UniProt P41143). Description: HTS Image-Based Screen for Antagonists of the DOR Receptor. [Related pubchem assays (depositor defined):AID1777, AID1785, AID1786, AID2133].
Assay [5] addresses T4, Mu-type opioid receptor (Homo sapiens, UniProt P35372). Description: HTS Image-Based Screen for Agonists of the MOR Receptor. [Related pubchem assays (depositor defined):AID1777, AID1785, AID1786, AID2133].
Assay [6] has as its target T3, Delta-type opioid receptor. The assay can be described thus: HTS Image-Based Screen for Agonists of the DOR Receptor. [Related pubchem assays (depositor defined):AID1777, AID1786, AID2133].
In assay [7] the target is T5, Kappa-type opioid receptor (Homo sapiens, UniProt P41145).
In assay [8] the target is Beta-galactosidase (Escherichia coli, UniProt Q8VNN2).
Assay [9] addresses T5, Kappa-type opioid receptor. This is another data set of the same source.
In assay [10] the target is Phospholipase A2 (Homo sapiens, UniProt P04054). Description: phospholipase A2 activity inhibition – biochemical, set 2, counter-screen for ATG4B inhibitor project, dose response (AID 588586). In general terms: Counterscreens check selectivity or assay interference.
Assay [11] concerns the target T6, Cysteine protease ATG4B (Homo sapiens, UniProt Q9Y4P1).
T6 sequence (Q9Y4P1 whole entry): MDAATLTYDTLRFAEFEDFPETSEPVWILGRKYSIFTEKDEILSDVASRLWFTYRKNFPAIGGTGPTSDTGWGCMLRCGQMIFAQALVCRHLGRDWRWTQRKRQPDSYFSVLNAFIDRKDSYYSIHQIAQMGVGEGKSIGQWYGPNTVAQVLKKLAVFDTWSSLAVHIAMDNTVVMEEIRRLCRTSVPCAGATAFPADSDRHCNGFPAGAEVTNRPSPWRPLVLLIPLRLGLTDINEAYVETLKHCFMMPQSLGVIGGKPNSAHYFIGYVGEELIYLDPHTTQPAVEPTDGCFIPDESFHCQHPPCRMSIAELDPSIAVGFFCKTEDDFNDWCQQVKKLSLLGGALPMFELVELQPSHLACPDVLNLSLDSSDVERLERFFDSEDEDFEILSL
The assay can be described thus: autophagin-1 cysteine protease inhibition – biochemical, fluorescence, set 2, dose response (AID 588584).

Assay [12] has as its target T3, Delta-type opioid receptor. The assay can be described thus: Counterscreen for agonists of heterodimerization of the mu 1 (OPRM1) and delta 1 (OPRD1) opioid receptors: Luminescence-based cell-based high throughput dose response assay to identify agonists of OPRD1 homodimerization. [Related pubchem assays (depositor defined):AID504326, AID504355, AID504692, AID504904, AID504905].

Assay [13] has as its target T4, Mu-type opioid receptor. The assay can be described thus: Counterscreen for agonists of heterodimerization of the mu 1 (OPRM1) and delta 1 (OPRD1) opioid receptors: Luminescence-based cell-based high throughput dose response assay to identify agonists of OPRM1 homodimerization.
The target in assay [14] is 5-hydroxytryptamine receptor 5A (Homo sapiens, UniProt P47898). The assay can be described thus: Counterscreen for agonists of OPRM1-OPRD1 heterodimerization: luminescence-based cell-based high throughput dose response assay to identify agonists of 5-hydroxytryptamine (serotonin) 5A receptor (HTR5A). [Related pubchem assays (depositor defined):AID504326, AID504355, AID504692, AID504904, AID504905].
Sequence of 5-hydroxytryptamine receptor 5A (P47898 whole entry): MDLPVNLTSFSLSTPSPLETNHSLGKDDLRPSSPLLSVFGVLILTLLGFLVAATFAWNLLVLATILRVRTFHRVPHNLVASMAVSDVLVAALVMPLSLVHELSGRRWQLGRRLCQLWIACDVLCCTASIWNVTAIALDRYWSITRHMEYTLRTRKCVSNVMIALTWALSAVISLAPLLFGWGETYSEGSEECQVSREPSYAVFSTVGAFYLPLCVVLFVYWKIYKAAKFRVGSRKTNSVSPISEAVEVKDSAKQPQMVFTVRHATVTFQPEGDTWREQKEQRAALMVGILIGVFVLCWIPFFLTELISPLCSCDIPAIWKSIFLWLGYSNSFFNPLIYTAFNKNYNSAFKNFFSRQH

T3 sequence (P41143 whole entry): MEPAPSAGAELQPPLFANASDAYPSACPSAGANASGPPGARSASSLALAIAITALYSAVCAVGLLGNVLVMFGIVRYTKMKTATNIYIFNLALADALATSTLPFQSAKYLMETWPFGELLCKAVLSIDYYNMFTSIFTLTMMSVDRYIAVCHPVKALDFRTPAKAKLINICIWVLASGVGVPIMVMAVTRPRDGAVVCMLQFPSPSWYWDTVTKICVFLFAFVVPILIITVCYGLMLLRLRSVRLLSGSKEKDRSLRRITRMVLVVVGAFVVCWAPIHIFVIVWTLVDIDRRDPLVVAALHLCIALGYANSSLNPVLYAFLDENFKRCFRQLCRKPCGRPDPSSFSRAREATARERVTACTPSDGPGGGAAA
T4 sequence (P35372 whole entry): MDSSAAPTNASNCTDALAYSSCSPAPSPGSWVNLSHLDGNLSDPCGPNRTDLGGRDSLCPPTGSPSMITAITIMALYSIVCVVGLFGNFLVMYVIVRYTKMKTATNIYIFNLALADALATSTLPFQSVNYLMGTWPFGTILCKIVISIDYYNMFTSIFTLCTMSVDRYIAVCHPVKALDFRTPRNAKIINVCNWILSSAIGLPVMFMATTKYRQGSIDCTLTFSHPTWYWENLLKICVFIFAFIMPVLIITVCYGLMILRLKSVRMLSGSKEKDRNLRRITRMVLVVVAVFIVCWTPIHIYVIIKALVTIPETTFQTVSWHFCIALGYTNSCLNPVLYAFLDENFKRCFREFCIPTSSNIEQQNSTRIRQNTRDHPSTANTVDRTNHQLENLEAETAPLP
T5 sequence (P41145 whole entry): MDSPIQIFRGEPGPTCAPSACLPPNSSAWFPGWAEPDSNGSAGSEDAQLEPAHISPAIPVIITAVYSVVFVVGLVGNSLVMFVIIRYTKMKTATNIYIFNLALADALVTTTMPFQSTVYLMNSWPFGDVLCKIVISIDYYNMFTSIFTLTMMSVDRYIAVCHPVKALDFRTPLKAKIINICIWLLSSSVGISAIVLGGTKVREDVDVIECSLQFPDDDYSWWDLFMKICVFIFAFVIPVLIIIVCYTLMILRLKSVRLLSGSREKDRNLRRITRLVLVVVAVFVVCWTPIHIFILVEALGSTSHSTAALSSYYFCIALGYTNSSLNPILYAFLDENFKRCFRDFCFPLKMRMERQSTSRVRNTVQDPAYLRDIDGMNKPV
Sequence of Beta-galactosidase (Q8VNN2 whole entry): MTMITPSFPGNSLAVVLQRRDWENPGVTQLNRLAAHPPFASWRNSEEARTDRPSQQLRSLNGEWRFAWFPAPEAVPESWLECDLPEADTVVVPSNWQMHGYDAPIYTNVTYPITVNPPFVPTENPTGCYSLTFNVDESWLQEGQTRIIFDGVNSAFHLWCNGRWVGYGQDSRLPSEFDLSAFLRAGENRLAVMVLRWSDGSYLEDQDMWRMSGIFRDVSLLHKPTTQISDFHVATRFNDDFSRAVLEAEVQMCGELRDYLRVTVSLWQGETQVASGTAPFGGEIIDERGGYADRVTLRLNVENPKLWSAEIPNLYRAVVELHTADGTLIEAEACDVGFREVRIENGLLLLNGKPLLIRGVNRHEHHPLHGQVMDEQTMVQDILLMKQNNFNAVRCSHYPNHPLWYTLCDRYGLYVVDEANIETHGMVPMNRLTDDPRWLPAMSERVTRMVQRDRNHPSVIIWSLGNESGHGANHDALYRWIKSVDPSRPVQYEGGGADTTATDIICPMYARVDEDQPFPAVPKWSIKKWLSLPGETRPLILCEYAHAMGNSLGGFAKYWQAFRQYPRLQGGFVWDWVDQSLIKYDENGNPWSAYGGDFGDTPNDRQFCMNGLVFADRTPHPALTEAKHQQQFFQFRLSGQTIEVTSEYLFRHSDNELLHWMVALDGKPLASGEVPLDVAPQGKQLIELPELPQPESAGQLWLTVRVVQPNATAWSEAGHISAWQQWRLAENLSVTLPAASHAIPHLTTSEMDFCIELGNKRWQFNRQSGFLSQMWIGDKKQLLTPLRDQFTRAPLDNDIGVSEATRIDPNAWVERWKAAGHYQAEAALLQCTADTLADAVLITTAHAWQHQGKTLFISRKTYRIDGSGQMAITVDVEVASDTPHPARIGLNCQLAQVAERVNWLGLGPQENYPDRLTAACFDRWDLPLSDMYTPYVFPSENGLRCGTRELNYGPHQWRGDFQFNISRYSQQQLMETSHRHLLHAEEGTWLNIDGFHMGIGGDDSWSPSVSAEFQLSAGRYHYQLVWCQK
Sequence of Phospholipase A2 (P04054 whole entry): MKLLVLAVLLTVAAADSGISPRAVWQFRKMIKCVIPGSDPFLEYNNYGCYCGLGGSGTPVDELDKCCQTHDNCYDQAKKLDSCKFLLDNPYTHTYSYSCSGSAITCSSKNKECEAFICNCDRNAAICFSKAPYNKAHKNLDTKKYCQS

Turning to `CS(=O)(=O)N1CCc2ccc(NC(=O)C3CCCO3)cc2C1` (configuration not stated), the IC50 in [1], in assay [2] and in [3] was > 79.4 µM (inactive) throughout.

Regarding `COC(=O)N/N=C(\C)c1ccc2ccccc2c1OC(F)F`, the IC50 in assay [1], in assay [2] and in [3] was > 79.4 µM (inactive) each time.

In the case of `Cc1ccc(CN2C3CCCC2CC(NC(=O)c2ccc(F)cc2)C3)cc1` (configuration not stated), the IC50 is > 32 µM (inactive) in assay [4], 7.7 µM (active) in assay [7] and 3.7 µM in assay [9]. The EC50 is > 32 µM (inactive) in assay [5], > 32 µM (inactive) in assay [6] and > 31.5 µM (inactive) in [8].

On to `O=C(C1CCN(c2ncnc3c2nc2n3CCCCC2)CC1)N1CCN(c2cccc(Cl)c2)CC1`, for which the values for the IC50 in assay [10] and in [11] were 11.1 µM (active) and 22.6 µM (inactive), respectively.

`CN(C)C(CNC(=O)c1cc2ccccc2o1)c1ccco1` (configuration not stated): the EC50 in assay [12], in [13] and in [14] was > 92.5 µM (inactive) throughout.
